Consider five molecules from article PMC5307958 (Scientific Reports, 2017).

Bridges are numbered along the chain shown (N, C = ends). Where no end group is shown, it is not given here.

For data set [1], the target named is T1, human BKα channel (ZERO isoform) expressed in HEK293 cells (Homo sapiens, UniProt Q12791).
T1 construct: expressed in transfected cells; host or cells: HEK293 (ATCC), transient transfection with Lipofectamine 2000; EGFP cotransfected as a separate marker
The experiment in a line: Patch-clamp recording, inside-out patches, extracellular application. The data set is classed as cell-based. Particulars: for effect on Po (post vs. pre peptide): 500 nM linear (reduced) LS3, extracellular, any voltage, compared with 500 nM cyclic LS3. Here is the method:
HEK293 cells (ATCC, Manassas, VA) were grown according to standard procedures. Cells were cultured at 37 °C in a 5% CO2 atmosphere in Dulbecco’s modified Eagle’s medium with L-glutamine, sodium pyruvate and 10% fetal bovine serum (Invitrogen). Cell lines were split with trypsin/EDTA in Hanks’ balanced salt solution (Invitrogen) up to 25–30 cycles. For phage display, stable lines stably expressed rSK2 or hBKα ZERO isoform. Cells were transfected (Lipofectamine 2000, Invitrogen) with hGlyRα1 and used 48 hours later. For electrophysiological recordings, cells were transfected with hBKα ZERO isoform. Enhanced green fluorescent protein (EGFP) was cotransfected as a marker. Electrophysiological recordings were made 16–72 h after transfection. Although the profile of BK channel composition varies from tissue to tissue, the ZERO BK channel splice variant is widely expressed, particularly in the nervous system, serving as a representative form for studying the modulation of BK channel gating.
Voltage-clamp recordings were performed at room temperature (22–24 °C) using an inside-out configuration on patches pulled from HEK293 cells. The extracellular solution contained the following (in mM): 2 KCl, 136 KOH, 20 HEPES, 2 MgCl2, adjusted to pH 7.2 with MeSO3H. In order to apply peptide to the extracellular surface, patch electrodes (7–20 MΩ in resistance) were tip-filled with normal extracellular solution and backfilled with extracellular solution containing LS3. Enough normal extracellular solution was included to provide at least five minutes of peptide-free recording (determined by plotting Po vs. time). The intracellular solution (in the bath) contained the following (in mM): 6 KCl, 132 KOH, 20 HEPES, adjusted to pH 7.2 with MeSO3H. To achieve 750 nM free Ca^2+, […] and 5 mM EGTA were included, a ratio verified by measurement with a Ca^2+-sensitive electrode. Voltage-clamp recordings made with an Axopatch 200 A amplifier and custom macros in IgorPro. Analysis was performed with QUB (http://www.qub.buffalo.edu), including Po, mean open time and three component exponential fits to closed dwell times. Group means±SEM for post-peptide measures were plotted relative to pre-peptide values and compared with pre values via planned paired t-tests.
A general note: Patch clamp records ionic current or voltage across a cell membrane.

For data set [2] the following is noted: cited from earlier work. The source says:
A pharmacological agent must cross the BBB in order to act at CNS-located targets. […] Many ion channel-targeted peptides are regarded as having low BBB permeability due to the large difference between the lethal dose when administered peripherally versus centrally. For example, the LD50 for peripherally administered dendrotoxin is in the tens of mg/kg, while it is ten thousand fold l ...

In another data set the test system is BK channel. Conditions: small molecule BK channel blocker; cited from earlier work. The source says:
CNS pharmacological applications favor pharmaceutical agents with high affinity, specificity, amenability to large-scale synthesis and BBB permeability. Peptide drugs have the potential for high affinity and specific binding to ion channel targets, as shown by voltage-gated potassium channel (Kv) peptide toxins. In addition to natural products, phage display screens have successfully selected peptides with high target affinity. For example, a phage display screen of scorpion toxin derivatives selected a novel peptide that blocks the Kv3.1 channel in the nanomolar range[41]. Here, a phage displ ...

Data set [3] can be described thus: Blood-brain barrier crossing inferred from functional activity in the IC. The class given is in vivo, mouse. Particulars: inferred from suppression of sound evoked activity after topical (dura) or systemic (0.3 mg/kg I.P.) administration. Here is the method:
(§1) The temperature was maintained near 25 °C.

For data set [4], the system named is mouse inferior colliculus (auditory midbrain). The experiment in a line: Sound evoked activity within excitatory receptive field (eRF), topical application on dura.
For data set [5], the system named is auditory nerve and generators caudal to the IC. The experiment in a line: Auditory brainstem responses (ABR). The class given is in vivo, mouse. Here is the method:
as §1
ABR recordings were acquired after the mice were anesthetized with ketamine (120 mg/kg) and xylazine (10 mg/kg) I.P., and respiration was monitored throughout to determine when additional supplemental doses were needed. Body temperature was kept constant at 37 °C using a feedback controlled heating pad (Physitemp TCAT2-LV Controller, Clifton, NJ). Stimuli and recordings were generated digitally and controlled using a TDT RZ6 Multi-I/O Processor and their BioSig/SigGen software. Acoustic signals were played through a multi-field (MF1) magnetic speaker (TDT, Alachua, FL) with a total harmonic distortion < = 1% from 1 kHz to 50 kHz, centered 0° azimuth in regards to the animal at a distance of 10 cm from the ear pinna. Tone bursts were presented at frequencies of 6, 12, 16, 20, 24, and 36 kHz (3 ms duration, 1 ms rise/fall time, alternating polarity) at a rate of 29 per second, attenuated in 5 dB steps from 80 dB SPL to 15 dB below threshold or 5 dB SPL, whichever was lower. Threshold was determined by visual inspection as the lowest intensity level which produced a defined wave in both replicates. All signals were calibrated using a Larsen Davis preamplifier, model 2221, with a 1/4″ microphone and a Larson Davis CAL200 Precision Acoustic Calibrator (PCB Piezotronics, Inc., Depew, NY). ABR recordings were acquired using a TDT RA4LI low-impedance digital headstage and RA4PA Medusa preamp with the active (noninverting) electrode inserted at the vertex, the reference (inverting) electrode below the left ear, and the ground electrode below the right ear. The responses were amplified (20×), filtered (300 Hz–3 kHz), and averaged using BioSig software and the System III hardware (TDT) data-acquisition system. A total of 256 tone burst signal and 150 GIN signal recordings were replicated for each acquisition, and muscle artifacts exceeding 7 μV were rejected from the averaged response. All recordings took place in a soundproof booth lined with echo-attenuating acoustic foam. ABR waveforms were analyzed using a custom MatLab program that automatically determined peak latencies and amplitudes in combination with secondary verification by an experimenter blind to the treatment group.

Data set [6] has as its target comprehensive panel of mammalian CNS-based proteins. Nature of the data set: radioligand binding; competition binding assays (NIMH PDSP): 10 microM LS3 against known radioligands for 33 targets; percent inhibition measured 4 times for each receptor; less than 50% inhibition considered insignificant.
In data set [7] the target is T2, human BKα channel (ZERO isoform) (human) (UniProt O95259).
T2 sequence: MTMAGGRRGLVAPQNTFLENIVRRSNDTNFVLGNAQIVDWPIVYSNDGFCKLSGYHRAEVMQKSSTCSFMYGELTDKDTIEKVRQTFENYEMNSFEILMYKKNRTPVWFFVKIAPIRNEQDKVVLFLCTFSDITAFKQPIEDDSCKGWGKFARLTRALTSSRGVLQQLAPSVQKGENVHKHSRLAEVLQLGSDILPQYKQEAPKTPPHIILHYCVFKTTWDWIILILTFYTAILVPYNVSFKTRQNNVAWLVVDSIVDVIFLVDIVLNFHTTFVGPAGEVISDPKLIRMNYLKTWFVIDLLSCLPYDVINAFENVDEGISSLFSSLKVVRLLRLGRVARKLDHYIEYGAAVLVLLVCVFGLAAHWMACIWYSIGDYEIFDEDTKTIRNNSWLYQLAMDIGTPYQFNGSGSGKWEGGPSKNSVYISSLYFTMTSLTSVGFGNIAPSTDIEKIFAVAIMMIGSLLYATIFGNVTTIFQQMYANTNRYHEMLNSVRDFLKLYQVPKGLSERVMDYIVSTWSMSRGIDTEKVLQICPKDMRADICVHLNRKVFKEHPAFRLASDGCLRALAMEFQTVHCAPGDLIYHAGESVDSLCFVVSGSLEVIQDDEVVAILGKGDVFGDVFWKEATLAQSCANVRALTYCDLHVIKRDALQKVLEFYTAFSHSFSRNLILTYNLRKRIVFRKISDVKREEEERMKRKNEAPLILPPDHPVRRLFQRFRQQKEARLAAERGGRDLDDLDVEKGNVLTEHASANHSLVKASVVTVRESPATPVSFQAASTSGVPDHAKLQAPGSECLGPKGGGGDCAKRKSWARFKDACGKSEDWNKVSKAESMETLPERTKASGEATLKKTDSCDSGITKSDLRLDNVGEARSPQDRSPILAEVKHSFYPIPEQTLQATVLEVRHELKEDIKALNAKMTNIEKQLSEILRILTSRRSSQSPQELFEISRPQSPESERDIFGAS

Broadly, the Ki is a dissociation constant, usually derived from enzyme kinetics or from competition with a known ligand. A lower Ki goes with a stronger hold on the target.

T1 sequence (Q12791 1-1178 isoform Q12791-5): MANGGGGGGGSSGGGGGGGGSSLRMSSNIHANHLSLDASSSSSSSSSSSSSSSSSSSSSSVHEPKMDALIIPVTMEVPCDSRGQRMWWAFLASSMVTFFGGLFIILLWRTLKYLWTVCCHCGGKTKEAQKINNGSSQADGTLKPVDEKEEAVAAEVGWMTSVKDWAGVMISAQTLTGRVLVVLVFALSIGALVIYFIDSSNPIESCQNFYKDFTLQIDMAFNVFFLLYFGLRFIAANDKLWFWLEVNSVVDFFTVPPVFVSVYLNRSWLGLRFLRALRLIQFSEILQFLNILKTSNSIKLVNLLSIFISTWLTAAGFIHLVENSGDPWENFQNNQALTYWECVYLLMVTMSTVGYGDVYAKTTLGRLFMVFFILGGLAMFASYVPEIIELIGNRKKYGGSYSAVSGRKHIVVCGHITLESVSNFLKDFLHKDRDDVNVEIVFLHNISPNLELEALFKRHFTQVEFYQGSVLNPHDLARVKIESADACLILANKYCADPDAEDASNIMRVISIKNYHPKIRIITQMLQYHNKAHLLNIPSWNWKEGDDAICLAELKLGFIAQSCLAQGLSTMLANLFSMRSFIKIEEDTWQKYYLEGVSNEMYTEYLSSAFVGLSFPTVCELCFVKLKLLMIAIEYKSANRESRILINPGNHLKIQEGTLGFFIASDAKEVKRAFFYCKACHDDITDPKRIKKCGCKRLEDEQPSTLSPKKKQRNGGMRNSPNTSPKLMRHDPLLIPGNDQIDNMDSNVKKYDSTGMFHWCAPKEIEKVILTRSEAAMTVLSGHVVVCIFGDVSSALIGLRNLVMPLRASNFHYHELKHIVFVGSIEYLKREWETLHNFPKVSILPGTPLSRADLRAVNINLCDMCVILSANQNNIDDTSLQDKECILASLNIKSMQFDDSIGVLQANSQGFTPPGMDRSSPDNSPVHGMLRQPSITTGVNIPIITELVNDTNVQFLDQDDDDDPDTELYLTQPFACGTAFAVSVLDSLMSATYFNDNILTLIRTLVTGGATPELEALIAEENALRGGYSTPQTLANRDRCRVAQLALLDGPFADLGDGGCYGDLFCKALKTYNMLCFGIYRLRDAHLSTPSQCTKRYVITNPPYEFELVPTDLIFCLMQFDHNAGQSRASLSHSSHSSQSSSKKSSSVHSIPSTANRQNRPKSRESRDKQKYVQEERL

In the case of “linearized version of LS3: linearized version of LS3 without the disulfide bridge (CRRGLVQVC)”, the “effect on Po (post vs. pre peptide)” value in data set [1] is on record as “no significant reduction in Po at any voltage”; in data set [1] (listed as linear peptide) it was “lack of effect”; in data set [1] (listed as reduced form of LS3), “did not alter Po”. In addition, the “potency relative to cyclic LS3” value in data set [1] (linearized version without the disulfide bridge, Po) was “less potent”.
Turning to “apamin: a small Kv toxin at 18 aa (CNCKAPETALCARRCQQH-NH2; disulfide 1-11, 3-15; ends not checked; UniProt P01500 28-45, looked up)”, the CNS availability result in data set [2] (in contrast to many ion channel-targeted peptides) is listed as “higher CNS availability”. Further, in data set [2] (intraperitoneal injection at a similar concentration used in this paper), the “effect on learning and memory-related behaviors” value is “alter learning and memory-related behaviors”.
In the case of `CC(C)(O)[C@H]1O[C@H]2CC[C@@]3(C)[C@@](O)(CC[C@H]4Cc5c([nH]c6ccccc56)[C@@]43C)C2=CC1=O` [paxilline, reference compound], the “IC50 (BK channel block)” value in the data set on BK channel is “low nanomolar”. Also, the “ability to cross the BBB” value in data set [3] was “can cross the BBB”. The “time course of suppression of sound evoked activity” value in data set [4] (1 μL of 10 μM paxilline, 51 units, F(12,430) = 4.146 P < 0.0001) is given as “suppression of sound evoked activity increasing out to 6 hours”. Also, the “reduction in sound driven activity” value in data set [4] (1 μL of 10 μM paxilline, 5 hours post-application, N = 5 mice) turned out to be 87%. In addition, the “reduction of maximum spike counts” value in data set [4] (1 μL of 10 μM paxilline, within 30 minutes, 51 units) was 50%. In data set [4] (1 μL of 10 μM paxilline, within 30 minutes, baseline 375, 51 units), this molecule had a maximum spike counts of 180 spikes. Besides, the “reduction of sound evoked driven activity within the RF” value in data set [4] (1 μL of 10 μM stock, from baseline pre-peptide, Fig. 5A,B representative eRFs) is listed as “approximately 50%”. In addition, the “mean ABR thresholds” value in data set [5] (4 hours post I.P. injection vs. baseline, tone bursts) was “No significant effect”. Moreover, the “ABR peak 1 (P1) amplitude by intensity functions” value in data set [5] (systemic (I.P.) injection, 4 hrs vs. baseline, auditory nerve) is “Neither BK channel modulator reduced auditory nerve (P1)”. In addition, the “ABR peak 4 (P4) amplitude by intensity functions” value in data set [5] (systemic (I.P.) injection, 4 hrs vs. baseline, generators caudal to the IC (brainstem)) is recorded as “Neither BK channel modulator reduced auditory nerve (P1) or brainstem (P4) amplitudes”.
With dendrotoxin, in data set [2], the “LD50, intraventricular injection, relative to peripheral” value is “ten thousand fold lower” and the “LD50, peripherally administered” value was “tens”.
In data set [6], CRRGLVQVC (disulfide 1-9) [LS3 (… with a 1–9 disulfide bridge)] came in with a Ki above 10 µM and a percent inhibition of radioligand binding at 10 microM LS3 below 50%. In addition, the post-peptide Po relative to pre-peptide Po at 40 mV, 500 nM LS3 in data set [7] was determined as 0.54.
